What was measured:
[1] = Quality of castor oil containing emulsions with different steroids (pH, volume distribution, span, storage stability); format: physicochemical; conditions: for D(4:3) / pH / Span: emulsion of the steroid; for pH: heat sterilized; for Span: Malvern Mastersizer; for Storage 5 and 40°C: storage stability of emulsion
Method: In order to determinate the quality of the castor oil containing emulsions with different steroids, the following compositions were prepared:
The steroids were weighed in a 50 ml glass beaker. The castor oil (CO) or a mixture of castor oil and soybeans oil (CO+SBO) in a proportion of 70 : 30 was added to the beaker which was heated and the steroids were dissolved. The phospholipids were added to the oil phase and the agitation continued for another five minutes. This mixture was added to a heated aqueous phase containing water and glycerol and agitated for five minutes. The mixture was thereafter homogenized to an emulsion in a high pressure lab scale homogeniser at the technically highest possible pressure. The resultant emulsions were dispersed and sealed 20 ml glass vials which were heat sterilized. The emulsions were analysed with respect to the appearance, the shaking stability, pH and volume distribution. The span was analysed with a Malvern Mastersizer. The appearance of the droplets larger than 1µm and the average area on a relevant picture and the presence of precipitate were investigated with a microscope. The storage stability at 5 and 40°C was also studied.

[2] = Solubility of steroid and stability of the oil-in-water emulsions of Example 2; format: physicochemical; conditions: in Formulation 1 compared with Formulation 3
Method: For the biological experimentation oil-in-water emulsions were prepared from the following components:
pH was adjusted to 8.5 by NaOH and water for injection was added to 1 ml in all formulations.
Formulations 1 and 2 are emulsions according to the present invention, whereas Formulation 3 is a state of the art emulsion according to the European patent EP 233 849. The medium chain triglycerides in Formulation 2 are derived from coconut oil and will contain a fraction of triglycerides with fatty add residues having 6 to 12 carbon atoms. According to the present invention, the eltanolone was first mixed with castor oil or a mixture of castor oil and soybean oil and/or MCT. This leads to a substantial dissolution of the eltanolone. An emulsion was then prepared from the resulting oil-eltanolone mixture together with the additional indicated components. The resulting emulsions were stable and had average particle sizes of about 0.2 to 0.3 µ and could be sterilized by autoclaving without destabilisation. It is notable that in Formulations 1 and 2 according to the present invention half the amount of lipids is sufficient for obtaining a substantial dissolution of eltanolone when compared to Formulation 3. The solubility of eltanolone is for example about 5 times higher in Formulation 1 than in Formulation 3.

[3] = vehicle CO+SBO (castor oil and soybean oil 70 : 30)

With `CC(=O)[C@H]1CC[C@H]2[C@@H]3CC[C@H]4C[C@H](O)CC[C@]4(C)[C@H]3CC[C@]12C` [Allo pregnanolone, 5α-pregnan-3β-ol-20-one] the “D(4:3)” value ([1]; vehicle CO (castor oil)) was 0.69 µm, the pH ([1]; vehicle CO (castor oil)) was 8.8 and the Span ([1]; vehicle CO (castor oil)) was 1.70. For the same molecule, the “D(4:3)” value ([1]; vehicle CO+SBO (70 : 30)) was 0.53 µm, the Span ([1]; vehicle CO+SBO (70 : 30)) was 1.58 and the pH [1, 3] was 9.0. The “Storage 5 and 40°C” value ([1]; vehicle CO (castor oil)) was greater than 3 months and the “Storage 5 and 40°C” value ([1]; vehicle CO+SBO (70 : 30)) was greater than 3 months.

In the case of `C[C@]12CC[C@@H](O)C[C@@H]1CC[C@@H]1[C@@H]2CC[C@]2(C)C(=O)CC[C@@H]12` [Androsterone, 5α-androstan-3α-ol-17-one], the “D(4:3)” value ([1]; vehicle CO (castor oil)) is reported as 0.83 µm, the pH ([1]; vehicle CO (castor oil)) is reported as 8.9 and the Span ([1]; vehicle CO (castor oil)) is reported as 1.79. For the same molecule, the “D(4:3)” value ([1]; vehicle CO+SBO (70 : 30)) was 0.51 µm, the Span ([1]; vehicle CO+SBO (70 : 30)) was 1.50 and the pH [1, 3] was 9.2. The “Storage 5 and 40°C” value ([1]; vehicle CO (castor oil)) was greater than 1 month months and the “Storage 5 and 40°C” value ([1]; vehicle CO+SBO (70 : 30)) was greater than 1 month months.

With `CC(=O)[C@H]1CC[C@H]2[C@@H]3CC[C@@H]4C[C@@H](O)CC[C@]4(C)[C@H]3CC[C@]12C` [Epipreganolone, 5β-pregnan-3β-ol-20-one] the “D(4:3)” value ([1]; vehicle CO (castor oil)) was 0.75 µm, the pH ([1]; vehicle CO (castor oil)) was 8.8 and the Span ([1]; vehicle CO (castor oil)) was 1.81. For the same molecule, the “D(4:3)” value ([1]; vehicle CO+SBO (70 : 30)) was 0.75 µm, the Span ([1]; vehicle CO+SBO (70 : 30)) was 1.71 and the pH [1, 3] was 9.0. For the same molecule, the “Storage 5 and 40°C” value ([1]; vehicle CO (castor oil)) was greater than 4 months and the “Storage 5 and 40°C” value ([1]; vehicle CO+SBO (70 : 30)) was greater than 4 months.

For `C[C@]12CCC(=O)C=C1CC[C@@H]1[C@@H]2[C@@H](O)C[C@@]2(C)[C@H]1CC[C@]2(O)C(=O)CO` [Hydrocortisone, 11β,17α,21-trihydroxypregna-4-ene-3,20-dione, reference compound], the “D(4:3)” value ([1]; vehicle CO (castor oil)) was 0.76 µm, the pH ([1]; vehicle CO (castor oil)) was 8.7 and the Span ([1]; vehicle CO (castor oil)) was 1.43. The “D(4:3)” value ([1]; vehicle CO+SBO (70 : 30)) was 0.56 µm, the Span ([1]; vehicle CO+SBO (70 : 30)) was 1.51 and the pH [1, 3] was 8.8.

For `C[C@]12C=CC(=O)C=C1CC[C@@H]1[C@@H]2[C@@H](O)C[C@@]2(C)[C@H]1CC[C@]2(O)C(=O)CO` [Prednisolone, 11β-11, 17, 21-trihydroxypregna-1,4-diene-3,20-dione, reference compound], the “D(4:3)” value ([1]; vehicle CO (castor oil)) was 0.81 µm, the pH ([1]; vehicle CO (castor oil)) was 8.9 and the Span ([1]; vehicle CO (castor oil)) was 1.28. The “D(4:3)” value ([1]; vehicle CO+SBO (70 : 30)) was 0.70 µm, the Span ([1]; vehicle CO+SBO (70 : 30)) was 1.26 and the pH [1, 3] was 8.9. For the same molecule, the “Storage 5 and 40°C” value ([1]; vehicle CO (castor oil)) was greater than 2 months and the “Storage 5 and 40°C” value ([1]; vehicle CO+SBO (70 : 30)) was greater than 2 months.

For `CC(=O)[C@H]1CC[C@H]2[C@@H]3CC=C4C[C@@H](OS(=O)(=O)O)CC[C@]4(C)[C@H]3CC[C@]12C` [Pregnenolone sulphate, 5-pregnen-3β-ol-20-one-sulphate], the “D(4:3)” value ([1]; vehicle CO (castor oil)) was 0.97 µm, the pH ([1]; vehicle CO (castor oil)) was 8.8 and the Span ([1]; vehicle CO (castor oil)) was 1.76. For the same molecule, the “D(4:3)” value ([1]; vehicle CO+SBO (70 : 30)) was 0.50 µm, the Span ([1]; vehicle CO+SBO (70 : 30)) was 1.56 and the pH [1, 3] was 8.8. The “Storage 5 and 40°C” value ([1]; vehicle CO (castor oil)) was greater than 1 month months and the “Storage 5 and 40°C” value ([1]; vehicle CO+SBO (70 : 30)) was greater than 1 month months.

In the case of `C[C@]12CC[C@@H](O)C[C@H]1CC[C@@H]1[C@@H]2CC[C@]2(C)[C@@H](C(=O)CO)CC[C@@H]12` [Tetrahydrodeoxycorticosterone, 5β-pregnan-3α,21-diol-20-one], the “D(4:3)” value ([1]; vehicle CO (castor oil)) is reported as 0.86 µm, the pH ([1]; vehicle CO (castor oil)) is reported as 9.0 and the Span ([1]; vehicle CO (castor oil)) is reported as 1.80. The “D(4:3)” value ([1]; vehicle CO+SBO (70 : 30)) was 0.58 µm, the Span ([1]; vehicle CO+SBO (70 : 30)) was 1.52 and the pH [1, 3] was 9.1. The “Storage 5 and 40°C” value ([1]; vehicle CO (castor oil)) was greater than 1 month months and the “Storage 5 and 40°C” value ([1]; vehicle CO+SBO (70 : 30)) was greater than 1 month months.

For `CC(=O)[C@H]1CC[C@H]2[C@@H]3CC[C@@H]4C[C@H](O)CC[C@]4(C)[C@H]3CC[C@]12C` [eltanolone, 5β-pregnan-3α-ol-20-one], the solubility of eltanolone [2] was “about 5 times higher”.
